Data published in ChEMBL document CHEMBL1201862, “PubChem BioAssay data set” (2004).
Calls of active or inactive are those of the source.

Tests used:
[1] = molecular target: T1, Tyrosine-protein phosphatase non-receptor type 11 (Homo sapiens, UniProt Q06124); test: SHP2 phosphatase inhibition, dose response, selectivity assay for STEP inhibitor project, biochemical (AID 602367); assay type: functional; details: read-out: IC50_Mean
T1 sequence (Q06124 whole entry): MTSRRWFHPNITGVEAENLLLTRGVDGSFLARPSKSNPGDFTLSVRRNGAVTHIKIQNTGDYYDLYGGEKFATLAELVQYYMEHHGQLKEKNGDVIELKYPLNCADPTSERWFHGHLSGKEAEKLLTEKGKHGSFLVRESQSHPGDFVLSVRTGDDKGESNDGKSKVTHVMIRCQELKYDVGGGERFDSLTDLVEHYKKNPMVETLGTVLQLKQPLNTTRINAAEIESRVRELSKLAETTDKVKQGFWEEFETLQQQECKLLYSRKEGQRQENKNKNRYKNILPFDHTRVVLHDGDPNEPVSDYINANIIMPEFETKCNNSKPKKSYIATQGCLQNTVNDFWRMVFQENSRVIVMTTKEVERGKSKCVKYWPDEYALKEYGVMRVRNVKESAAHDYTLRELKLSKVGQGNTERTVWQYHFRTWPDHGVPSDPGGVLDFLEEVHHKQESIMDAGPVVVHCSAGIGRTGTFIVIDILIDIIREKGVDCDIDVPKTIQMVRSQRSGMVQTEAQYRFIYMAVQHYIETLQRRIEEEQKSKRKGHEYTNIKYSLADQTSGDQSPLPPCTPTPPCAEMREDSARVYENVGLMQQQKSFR

[2] = molecular target: T2, Tyrosine-protein phosphatase non-receptor type 5 (Homo sapiens, UniProt P54829); test: STEP phosphatase inhibitors, confirmation, biochemical, fluorescence intensity, uHTS hits (AID 602372); assay type: functional; details: read-out: IC50_Mean
T2 sequence (P54829 whole entry): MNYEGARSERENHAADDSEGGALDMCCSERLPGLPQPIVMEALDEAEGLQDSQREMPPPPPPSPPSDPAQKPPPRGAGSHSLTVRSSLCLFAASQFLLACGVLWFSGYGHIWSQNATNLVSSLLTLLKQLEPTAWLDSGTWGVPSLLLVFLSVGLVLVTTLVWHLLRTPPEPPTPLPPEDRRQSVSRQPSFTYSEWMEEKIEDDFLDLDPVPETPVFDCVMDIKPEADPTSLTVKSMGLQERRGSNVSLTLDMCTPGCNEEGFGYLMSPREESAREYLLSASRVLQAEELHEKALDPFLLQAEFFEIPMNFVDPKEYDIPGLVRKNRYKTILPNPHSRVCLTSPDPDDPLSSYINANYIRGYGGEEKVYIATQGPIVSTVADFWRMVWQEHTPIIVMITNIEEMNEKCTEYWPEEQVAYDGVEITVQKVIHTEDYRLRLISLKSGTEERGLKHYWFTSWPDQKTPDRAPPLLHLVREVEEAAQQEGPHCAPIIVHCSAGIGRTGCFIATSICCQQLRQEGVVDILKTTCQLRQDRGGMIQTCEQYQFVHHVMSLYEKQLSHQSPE

[3] = molecular target: Dual specificity protein phosphatase 3 (Homo sapiens, UniProt P51452); test: VHR phosphatase inhibition, dose response, selectivity assay for STEP inhibitor project, biochemical (AID 602374); assay type: functional; details: read-out: IC50_Mean
[4] = molecular target: T3, Tyrosine-protein phosphatase non-receptor type 22 (Homo sapiens, UniProt Q9Y2R2); test: PTPN22 phosphatase inhibition, dose response, selectivity assay for STEP inhibitor project, biochemical (AID 624241); assay type: functional
T3 sequence (Q9Y2R2 whole entry): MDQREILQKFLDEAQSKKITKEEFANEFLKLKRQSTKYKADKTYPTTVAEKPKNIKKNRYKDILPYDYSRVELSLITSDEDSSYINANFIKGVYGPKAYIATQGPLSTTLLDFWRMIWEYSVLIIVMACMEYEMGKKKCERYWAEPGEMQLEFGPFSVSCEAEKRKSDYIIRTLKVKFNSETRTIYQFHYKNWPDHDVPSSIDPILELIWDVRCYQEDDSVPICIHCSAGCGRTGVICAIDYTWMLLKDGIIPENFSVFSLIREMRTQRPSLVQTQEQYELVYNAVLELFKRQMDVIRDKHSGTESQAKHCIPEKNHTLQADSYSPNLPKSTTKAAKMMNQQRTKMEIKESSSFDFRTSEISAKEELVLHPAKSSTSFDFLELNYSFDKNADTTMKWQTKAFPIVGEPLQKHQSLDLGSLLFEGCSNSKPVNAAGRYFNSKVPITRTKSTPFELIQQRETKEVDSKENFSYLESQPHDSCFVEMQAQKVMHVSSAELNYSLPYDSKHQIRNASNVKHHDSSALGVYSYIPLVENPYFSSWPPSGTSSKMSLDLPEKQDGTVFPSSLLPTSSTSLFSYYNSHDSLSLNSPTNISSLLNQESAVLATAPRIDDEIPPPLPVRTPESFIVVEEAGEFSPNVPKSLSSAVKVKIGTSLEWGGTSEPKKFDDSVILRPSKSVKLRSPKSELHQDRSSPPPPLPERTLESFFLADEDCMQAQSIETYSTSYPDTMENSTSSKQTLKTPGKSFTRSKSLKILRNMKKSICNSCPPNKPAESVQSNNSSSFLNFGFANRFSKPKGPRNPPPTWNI

[5] = molecular target: T4, Short transient receptor potential channel 4 (Mus musculus, UniProt Q9QUQ5); test: mouse TRPC4 channel activators, dose response, cell-based, HEK293 TRPC4/mu-opioid, Fluo-4 calcium (AID 434937); assay type: functional
T4 sequence (Q9QUQ5 whole entry): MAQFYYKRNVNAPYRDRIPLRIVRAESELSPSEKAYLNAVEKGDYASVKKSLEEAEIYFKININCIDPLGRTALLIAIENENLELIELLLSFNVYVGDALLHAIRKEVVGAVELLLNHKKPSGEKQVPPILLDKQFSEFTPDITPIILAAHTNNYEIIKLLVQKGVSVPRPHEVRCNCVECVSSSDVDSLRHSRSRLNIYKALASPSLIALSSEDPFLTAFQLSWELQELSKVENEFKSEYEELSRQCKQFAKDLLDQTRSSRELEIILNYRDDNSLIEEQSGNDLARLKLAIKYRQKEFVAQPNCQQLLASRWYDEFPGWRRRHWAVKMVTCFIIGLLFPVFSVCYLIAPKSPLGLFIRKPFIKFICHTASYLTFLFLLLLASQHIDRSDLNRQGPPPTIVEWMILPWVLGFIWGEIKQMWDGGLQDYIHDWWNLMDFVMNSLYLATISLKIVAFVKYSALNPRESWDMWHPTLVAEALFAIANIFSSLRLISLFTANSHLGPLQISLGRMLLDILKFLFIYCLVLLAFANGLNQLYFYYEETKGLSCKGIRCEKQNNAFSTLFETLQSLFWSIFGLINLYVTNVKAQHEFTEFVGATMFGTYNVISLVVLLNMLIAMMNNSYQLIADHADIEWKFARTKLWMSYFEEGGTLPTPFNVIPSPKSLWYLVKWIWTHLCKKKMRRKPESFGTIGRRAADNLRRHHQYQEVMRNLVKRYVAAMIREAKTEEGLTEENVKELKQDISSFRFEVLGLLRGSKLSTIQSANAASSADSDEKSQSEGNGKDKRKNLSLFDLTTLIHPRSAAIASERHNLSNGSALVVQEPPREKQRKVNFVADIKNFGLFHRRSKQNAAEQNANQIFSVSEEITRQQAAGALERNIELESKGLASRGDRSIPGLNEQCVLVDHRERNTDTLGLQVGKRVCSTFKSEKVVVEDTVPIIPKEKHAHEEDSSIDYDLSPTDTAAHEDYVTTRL

[6] = cells; assay type: functional, cell-based
[7] = molecular target: T5, Trace amine-associated receptor 1 (Homo sapiens, UniProt Q96RJ0); test: Fluorescence-based cell-based high throughput dose response assay to identify agonists of the human trace amine associated receptor 1 (TAAR1).; assay type: functional
T5 sequence (Q96RJ0 whole entry): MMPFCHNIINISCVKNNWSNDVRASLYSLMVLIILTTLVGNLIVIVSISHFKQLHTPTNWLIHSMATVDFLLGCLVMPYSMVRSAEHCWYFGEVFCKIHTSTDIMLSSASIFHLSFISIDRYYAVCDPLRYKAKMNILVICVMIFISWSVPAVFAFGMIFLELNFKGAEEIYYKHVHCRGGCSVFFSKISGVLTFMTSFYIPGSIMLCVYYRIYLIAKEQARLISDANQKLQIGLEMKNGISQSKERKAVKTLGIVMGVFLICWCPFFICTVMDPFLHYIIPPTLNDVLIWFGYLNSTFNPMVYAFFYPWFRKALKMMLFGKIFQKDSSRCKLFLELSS

[8] = molecular target: T5, Trace amine-associated receptor 1; test: Counterscreen for agonists of the human trace amine associated receptor 1 (hTAAR1): Fluorescence-based cell-based high throughput dose response assay to identify hTAAR1 agonist that also desensitize TAAR1 receptor response.; assay type: functional
[9] = cells; assay type: functional, cell-based; remark: listed apart in the source
[10] = molecular target: Long-chain-fatty-acid--AMP ligase FadD28 (Mycobacterium tuberculosis, UniProt P9WQ59); test: Fluorescence polarization aasay to screen for inhibitors that compete for the binding of FadD28 to a bisubstrate Measured in Biochemical System Using Plate Reader - 2147-01_Inhibitor_Dose_CherryPick_Activity.; assay type: functional, Mycobacterium tuberculosis H37Rv
[11] = tested on: H9c2; test: cells; assay type: functional, cell-based; details: Rattus norvegicus, H9c2, Myocardium;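 further: confirmatory concentration-response retest of ultra-high-throughput screening hits for modulation of myocardial damage; cell death induced by hydrogen peroxide oxidative stress; compound pretreatment for 60 min then peroxide exposure for 2 h; potency is for protecting the cells against peroxide damage rather than for killing them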
[12] = molecular target: Galanin receptor type 3 (Homo sapiens, UniProt O60755); test: Fluorescence-based cell-based primary high throughput dose response assay to identify antagonists of the Galanin Receptor 3 (GalR3).; assay type: functional
[13] = cells; assay type: functional, cell-based; details: HEK-CNG
[14] = molecular target: Beta-lactamase (Salmonella choleraesuis (strain SC-B67), UniProt Q5J463); test: Epi-absorbance-based counterscreen for selective VIM-2 inhibitors: dose response biochemical high throughput screening assay to identify inhibitors of TEM-1 serine-beta-lactamase.
[15] = molecular target: T6, Beta-lactamase (Pseudomonas aeruginosa, UniProt Q79MP6); test: IMP-1 metallo-beta-lactamase inhibitors, dose response, selectivity assay for VIM-2 inhibitor project, biochemical, epi-absorbance (AID 1920)
[16] = molecular target: T6, Beta-lactamase; test: […] counterscreen for selective VIM-2 inhibitors: dose response biochemical high throughput screening assay to identify inhibitors of IMP-1 metallo-beta-lactamase.
[17] = molecular target: Major prion protein (Homo sapiens, UniProt P04156); assay type: functional, cell-based
[18] = cells
[19] = molecular target: T7, Methionyl-tRNA synthetase, putative (Trypanosoma brucei brucei, UniProt Q38C91); assay type: functional, Trypanosoma brucei brucei strain 927/4 GUTat10.1
T7 sequence (Q38C91 whole entry): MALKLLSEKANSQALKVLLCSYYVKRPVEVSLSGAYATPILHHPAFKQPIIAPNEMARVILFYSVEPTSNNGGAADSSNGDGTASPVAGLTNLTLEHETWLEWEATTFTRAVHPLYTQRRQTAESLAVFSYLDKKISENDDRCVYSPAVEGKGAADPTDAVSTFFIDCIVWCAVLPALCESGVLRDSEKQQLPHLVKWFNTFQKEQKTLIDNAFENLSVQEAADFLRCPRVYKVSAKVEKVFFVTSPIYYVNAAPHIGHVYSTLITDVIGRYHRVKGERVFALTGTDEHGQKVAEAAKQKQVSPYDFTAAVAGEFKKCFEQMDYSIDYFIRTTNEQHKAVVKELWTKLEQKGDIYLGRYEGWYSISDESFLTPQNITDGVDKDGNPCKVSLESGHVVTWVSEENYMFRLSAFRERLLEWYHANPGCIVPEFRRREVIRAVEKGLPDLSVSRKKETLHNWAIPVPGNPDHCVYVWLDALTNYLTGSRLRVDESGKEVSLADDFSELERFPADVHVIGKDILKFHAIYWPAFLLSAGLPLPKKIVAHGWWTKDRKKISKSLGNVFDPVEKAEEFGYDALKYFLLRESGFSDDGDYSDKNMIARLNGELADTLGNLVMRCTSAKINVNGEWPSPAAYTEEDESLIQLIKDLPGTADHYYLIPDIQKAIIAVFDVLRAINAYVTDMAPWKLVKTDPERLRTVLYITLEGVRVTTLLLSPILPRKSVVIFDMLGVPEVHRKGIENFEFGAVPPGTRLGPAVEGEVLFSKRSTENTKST

[20] = Counterscreen for inhibitors of Trypanosoma brucei methionyl tRNA synthetase (MetRS): Luminescence-based cell-based high throughput dose response assay to identify compounds that are cytotoxic to Jurkat human T lymphocyte cells.; assay type: functional
[21] = molecular target: T7, Methionyl-tRNA synthetase, putative; assay type: functional, Trypanosoma brucei brucei strain 927/4 GUTat10.1; remark: listed apart in the source

With `COc1ccc(NC(S)=NCCN2CCC(C)CC2)cc1Cl` the IC50 [1] was 0.999 µM (active), the IC50 [2] was 11.2 µM (active) and the IC50 [3] was 0.72 µM (active). For the same molecule, the IC50 [4] was 43.9 µM (inactive).

For `CCOC(=O)C1CCCN(C(c2ccccn2)c2c(C)[nH]c3ccccc23)C1` (configuration not stated), the EC50 [5] was 5.31 µM (active), the IC50 [6] was > 29.9 µM (inactive) and the EC50 [7] was 22.3 µM (inactive). For the same molecule, the IC50 [8] was 2.65 µM (active) and the EC50 [9] was > 29.9 µM (inactive).

In the case of `Cc1noc(NS(=O)(=O)c2ccc(NC(=O)/C=C/c3ccc(C(C)C)cc3)cc2)c1C`, the AC50 [10] is reported as 30.2 µM (active).

In the case of `Oc1nc2cccnc2c2ccsc12`, the IC50 [11] is reported as > 79 µM (inactive), the IC50 [12] is reported as > 29.9 µM (inactive) and the EC50 [13] is reported as > 29.9 µM (inactive).

With `O=[N+]([O-])C(=C1SCCS1)C(=C(Cl)Cl)N1CCCCC1` the AC50 [10] was > 100 µM (inactive).

In the case of `O=C(O)c1ccccc1Sc1ncnc2sc3c(c12)CCC3`, the IC50 [14] is reported as > 59.6 µM (inactive), the IC50 [15] is reported as > 59.6 µM (inactive) and the IC50 [16] is reported as > 59.6 µM (inactive). The IC50 [17] was 7.05 µM (active) and the IC50 [18] was > 138 µM (inactive).

With `COc1ccc(/C=C2\SC(=O)N=C2N)cc1` the IC50 [19] was 119 µM (inactive), the IC50 [20] was 83.4 µM (inactive) and the IC50 [21] was 7.57 µM (active).

In the case of `OC(c1ccc(Cl)c(Cl)c1)c1nc(-c2ccc(Cl)cc2)c[nH]1` (configuration not stated), the IC50 [19] is reported as 7.79 µM (active), the IC50 [20] is reported as 51.5 µM (inactive) and the IC50 [21] is reported as 4.26 µM (active).

For `COC(=O)[C@]12CCCCC=C1N(Cc1cccc3ccccc13)C(=O)[C@H](CC(=O)NCc1ccc(OC)c(OC)c1)C2`, the IC50 [12] was > 29.9 µM (inactive) and the EC50 [13] was > 29.9 µM (inactive).
